Here are results for one compound from US9883999B2, “Method for solubilizing rutin with polyhydroxy alkyl alcohols” (Colgate-Palmolive Company, priority 2013, dated 2018).

Molecules are shown by their SMILES.

Series [1] relates to exfoliated human oral mucosal cells. As to the kind of experiment: Protective (anti-oxidation) efficacy of rutin solutions by cell staining method (Janus Green B, H2O2/Fe2+ challenge). The format is cell-based. The note with it: larger ΔE*a,b = stronger protection. The procedure:
Rutin is dissolved in water to prepare a range of different levels of rutin solution. The protective efficacy of rutin solutions is measured using a cell staining method. In this method, the morphology of exfoliated human oral mucosal cells contacted with various concentrations of rutin is disclosed with Janus Green B dye. Photographic digital images are obtained using a light microscope with a 40× or 100× objective lenses connected to a digital camera. The color difference between the cell plasma and the area outside the cell, ΔE*a,b, is determined using the CIE L*a*b* system. The larger the ΔE*a,b value, the stronger the protective efficacy. The method includes the following steps: • 1. Human mucosal cells are collected and mixed with 1 mL Ringer solution, 0.5 mL Fe^2+ and 0.5 mL HAc—Ac buffer in a 5 mL Eppendorf tube. • 2. The cell suspension is then equally divided into two tubes. To the first tube is added 0.2 mL of 20 mM H2O2. To the second tube is added 0.2 mL Ringer solution. • 3. After 10 min, one drop of the above treated samples is placed on a microscope slide and stained with one drop of 0.1% Janus Green B for 1 h or longer. • 4. After staining, the cells are observed under the light microscope. Digital images are also acquired and ΔE*a, b is measured.

Series [2] can be described thus: Initial evaluation of solubilizing agents for rutin by relative clarity of the solutions. The series is classed as physicochemical. The following applies: 0.5% rutin added to 10 g of each test solubilizer; propylene glycol best, sorbitol worst.

Consider `C[C@@H]1O[C@@H](OC[C@H]2O[C@@H](Oc3c(-c4ccc(O)c(O)c4)oc4cc(O)cc(O)c4c3=O)[C@H](O)[C@@H](O)[C@@H]2O)[C@H](O)[C@H](O)[C@H]1O` [rutin, 2-(3,4-dihydroxyphenyl)-5,7-dihydroxy-3-[α-L-rhamnopyranosyl-(1→6)-β-D-glucopyranosyloxy]-4H-chromen-4-one], for which the “Protective efficacy (ΔE*a, b)” value in series [1] (rutin concentration 0.5 mM in water) is 5.5; in series [1] (rutin concentration 1.0 mM in water), 24.7; in series [1] (rutin concentration 2.0 mM in water) it was 38.9. Moreover, in series [2], the “solubility capability of the humectants, ranked” value is given as “propylene glycol>>glycerin>PEG600≈PEG-40 hydrogenated castor oil>sorbitol”.
